From US11369110B2, “Compositions and methods for enhancing microbial stability” (NOVOZYMES BIOAG A/S, priority 2013, dated 2022)

What was measured:
[1] = test system: B. elkani SEMIA 587 and B. elkani SEMIA 5019; assay: Liquid inoculant survivability in the presence of benzyl hemi-formal (Example 1); format: cell-based, Bradyrhizobium elkani; conditions: at the concentration tested; Table 2
Description: (§1) The activity of two microbially stabilizing compounds, yeast extract and albumin, were tested for reducing the effects of the preservative benzyl hemi-formal (at a concentration reflecting that provided by the current recommendation for a commercial insecticide that includes that preservative).
(§2) Using conventional aseptic techniques, 10 ml of a commercial liquid inoculant containing B. elkani SEMIA 587 and B. elkani SEMIA 5019 (Nitragin Optimize II, commercially available from Novozymes) was transferred to a series of sterile test tubes, to which 0.7 ml of a 2% solution containing benzyl hemi-formal was added and, in the corresponding tubes, 0.3 g of Yeast extract (commercially available from Merck) or 0.3 g Albumin (commercially available from SIGMA) were incorporated. A control of bacterial survival consisting of the inoculants without a microbial stabilizing compound was tested for comparison.
(§3) The tubes were mixed using a vortex agitator, transferred to a 30° C. orbital shaker. After 20 minutes incubation (Time 0), 0.1 ml samples were taken, and conventionally diluted 1/10 in a series of tubes containing 0.9 ml of sterile saline solution (0.85% NaCl in distilled water). […] Colonies were counted after seven days incubation. The number of colony forming units per ml (CFU ml^−1) was calculated taking into account the plated dilutions and the plated volume. […]

[2] = test system: B. japonicum SEMIA 5079 and B. japonicum SEMIA 5080; assay: Liquid inoculant survivability in the presence of benzyl hemi-formal (Example 4); format: cell-based, Bradyrhizobium japonicum; conditions: at the concentration tested; Table 8
Description: as §1
as §2, with “japonicum” for “elkani”, “5079” for “587”, “5080” for “5019”, “CellTech HC,” for “Optimize II,”
as §3

[3] = test system: B. elkani SEMIA 587 and B. elkani SEMIA 5019; assay: Liquid inoculant survivability in the presence of insecticide containing benzyl hemi-formal (Example 2); format: cell-based, Bradyrhizobium elkani; conditions: Table 4
Description: The general protocol described in Example 1 was modified to process larger samples. A commercial insecticide containing benzyl hemi-formal was tested at concentrations that would emulate the recommended doses both for the inoculants and the insecticide.
(§4) Sterile 250 ml erlenmeyers containing sterile magnetic stirrers were used instead of test tubes. The commercial insecticide was transferred to a series of erlenmeyers and the stated amounts of microbial stabilizing compounds (yeast extract and soy meal peptone from Merck and tryptophan from Ajinomoto) were premixed at 250 rpm for 6 hours.
To each of the corresponding erlenmeyer flasks, 30 ml of the inoculants (as described in example 1) was added, mixed, and samples were obtained immediately and at 2 hr intervals. Samples were processed as described in Example 1.

[4] = test system: B. japonicum SEMIA 5079 and B. japonicum SEMIA 5080; assay: Liquid inoculant survivability in the presence of insecticide containing benzyl hemi-formal (Example 5); format: cell-based, Bradyrhizobium japonicum; conditions: Table 10
Description: The general protocol described in Example 4 was modified to process larger samples. A commercial insecticide containing benzyl hemi-formal was tested at concentrations that would emulate the recommended doses both for the inoculants and the insecticide.
as §4
To each of the corresponding erlenmeyer flasks, 30 ml of inoculant (as described in example 4) was added, mixed, and samples were obtained immediately and at 2 hr intervals. Samples were processed as described in Example 4.

Compound	Effect on the deleterious effects induced by benzyl hemi-formal (in words) [1]	Effect on the deleterious effects induced by benzyl hemi-formal (in words) [2]	Effect on the deleterious effects induced by benzyl hemi-formal containing agrochemical on a microbial population (in words) [3]	Effect on the deleterious effects induced by benzyl hemi-formal containing agrochemical on a microbial population (in words) [4]
albumin	reduce the deleterious effects	reduce the deleterious effects		
N[C@@H](Cc1c[nH]c2ccccc12)C(=O)O [tryptophan]			reduce the deleterious effects	reduce the deleterious effects
